From PMC4335020, “Single Oral Dose Pharmacokinetics of Decursin and Decursinol Angelate in Healthy Adult Men and Women” (PLoS ONE, 2015)
Where two headings read alike, the source gives them in different places.

Assay: Single oral dose human plasma pharmacokinetics of D, DA and DOH after Cogni.Q
Assay type: in vivo
Conditions: for Tmax / AUC(0-t) / Cmax / half-life: human, plasma
From the text: Ten healthy male and 10 female subjects were recruited by public announcement in Amarillo, TX, from January 2013 to April 2013 (see Fig. 1 CONSORT diagram). The sample size for each gender was chosen without power calculation due to the lack of prior knowledge of PK parameter variance in humans. After receiving informed consent verbally and in writing, the health status of each candidate was confirmed by health questionnaire, plasma biochemistry (hepatic and renal functions), complete blood cell count (CBC), and a physical examination by a participating academic physician. Subjects with diabetes, or pregnant, perinatal and breastfeeding women were excluded. For the 48 hours preceding study visit until the final blood draw, all subjects were instructed to avoid taking any prescription or nonprescription drugs, vitamins, and herbal/dietary supplements. Each subject was compensated for participating in the study per TTUHSC IRB approved rate.
Eligible subjects arrived at our clinical facility at 0700 (7:00 am) on the test day after a fast beginning at 2200 (10:00 pm) the previous night. After a brief review of vital signs, the nurse placed an intravenous (IV) line with saline drip in one arm of each subject. A baseline pre-dose (hour 0) blood sample was drawn through the IV line; after that subjects swallowed four Cogni.Q vegicaps with 240 mL of water at hour 0 under direct supervision. Subjects stayed at the clinical facility in their room for the next 12 hours, returning at 24 and 48 hours. Blood was drawn at baseline (hour 0) and at 0.5, 1, 2, 3, 4, 6, 8, 12, 24 and 48 hours after dosing into Vacutainer Blood Collection Tube (Becton-Dickinson, Franklin Lakes, NJ. Product Number: 367874, Sodium heparin was used as anti-coagulant). Water was allowed as desired except for within the first hour after Cogni.Q consumption. All subjects received standardized meals at post-dose hours 4.5 and 9.5 but no food was allowed for at least the first 4 hours post-dose.
Plasma was prepared by centrifuging the heparinized blood at 1000 g for 15 minutes at room temperature. Urine samples (40mL) were collected within time spans of 0–4, 4–8, 8–12 and 12–24 hours (total volume of urine was recorded). All plasma and urine samples were put on dry ice immediately and then stored at -80°C freezer until analysis.
Plasma samples were extracted with a validated solid supported liquid extraction (SLE) method facilitated with a positive pressure manifold (Biotage, Charlotte, NC). Briefly, 100 μL of plasma sample was spiked with 5 μL of 10 ng/μL prednisolone (IS), diluted with 200 μL of LC-MS grade water, mixed and loaded onto ISOLUTE SLE+ 400 μL Array Well cartridges (Biotage, Charlotte, NC). A pulse of minimum positive pressure was applied to facilitate the samples absorption into the cartridges. After the samples were allowed to absorb for 5 min, the compounds were eluted with 2×500 μL tert-butyl methyl ether. The eluent was dried in a Speedvac and the resulting residue was reconstituted in 50 μL of methanol for UHPLC-MS/MS analysis.
Eight-point calibration curves were constructed for D, DA and DOH, at concentrations of 0.1, 0.5, 1, 5, 10, 20, 50 and 100 μg/L for D and DA, and at concentrations of 1, 5, 10, 50, 100, 200, 500 and 1000 μg/L for DOH, respectively. The linear range was 0.1–100 μg/L (0.3–300 nmol/L), 0.1–100 μg/L (0.3–300 nmol/L) and 1–1000 μg/L (4–4000 nmol/L) for D, DA and DOH, respectively. The inter- and intra-assay CV were lower than 6.5% and the accuracy was between 90–105%. Calibration curve was run for each batch of samples analyzed. The mean calibration curve correlation coefficient (r) for D, DA and DOH was 0.999, 0.999 and 0.998, respectively (data from 7–10 calibration curves). In addition, 70% of the plasma samples were extracted and analyzed twice, the data from two replicate analyses were nearly identical and combined for final data analyses and presentation. […]

Tmax (oral, 4 Cogni.Q vegicaps, subject S9 (158 lb), read-out: Tmax): 1 h
AUC(0-t) (oral, 4 Cogni.Q vegicaps, subject S10 (185 lb), read-out: AUC0-48h): 115 nmol·h/L
Cmax (oral, 4 Cogni.Q vegicaps, subject S10 (185 lb), read-out: Cmax): 7 nM
half-life (oral, 4 Cogni.Q vegicaps, subject S10 (185 lb), read-out: Terminal t1/2, h (converted)): 13.3 h
Tmax (oral, 4 Cogni.Q vegicaps, subject S10 (185 lb), read-out: Tmax): 2 h
AUC(0-t) (oral, 4 Cogni.Q vegicaps, subject S11 (178 lb), read-out: AUC0-48h): 168 nmol·h/L
Cmax (oral, 4 Cogni.Q vegicaps, subject S11 (178 lb), read-out: Cmax): 29.7 nM
half-life (oral, 4 Cogni.Q vegicaps, subject S11 (178 lb), read-out: Terminal t1/2, h (converted)): 14.2 h
Tmax (oral, 4 Cogni.Q vegicaps, subject S11 (178 lb), read-out: Tmax): 1 h
AUC(0-t) (oral, 4 Cogni.Q vegicaps, subject S12 (169 lb), read-out: AUC0-48h): 150 nmol·h/L
Cmax (oral, 4 Cogni.Q vegicaps, subject S12 (169 lb), read-out: Cmax): 16.8 nM
half-life (oral, 4 Cogni.Q vegicaps, subject S12 (169 lb), read-out: Terminal t1/2, h (converted)): 40.2 h
Tmax (oral, 4 Cogni.Q vegicaps, subject S12 (169 lb), read-out: Tmax): 2 h
AUC(0-t) (oral, 4 Cogni.Q vegicaps, subject S13 (192 lb), read-out: AUC0-48h): 106 nmol·h/L
Cmax (oral, 4 Cogni.Q vegicaps, subject S13 (192 lb), read-out: Cmax): 11.2 nM
half-life (oral, 4 Cogni.Q vegicaps, subject S13 (192 lb), read-out: Terminal t1/2, h (converted)): 12.7 h
Tmax (oral, 4 Cogni.Q vegicaps, subject S13 (192 lb), read-out: Tmax): 1 h
AUC(0-t) (oral, 4 Cogni.Q vegicaps, subject S14 (200 lb), read-out: AUC0-48h): 96.4 nmol·h/L
Cmax (oral, 4 Cogni.Q vegicaps, subject S14 (200 lb), read-out: Cmax): 24.4 nM
half-life (oral, 4 Cogni.Q vegicaps, subject S14 (200 lb), read-out: Terminal t1/2, h (converted)): 12.6 h
Tmax (oral, 4 Cogni.Q vegicaps, subject S14 (200 lb), read-out: Tmax): 1 h
AUC(0-t) (oral, 4 Cogni.Q vegicaps, subject S15 (177 lb), read-out: AUC0-48h): 512 nmol·h/L
Cmax (oral, 4 Cogni.Q vegicaps, subject S15 (177 lb), read-out: Cmax): 196 nM
half-life (oral, 4 Cogni.Q vegicaps, subject S15 (177 lb), read-out: Terminal t1/2, h (converted)): 18.7 h
Tmax (oral, 4 Cogni.Q vegicaps, subject S15 (177 lb), read-out: Tmax): 1 h
Tmax (oral, 4 Cogni.Q vegicaps, subject S16 (175 lb), read-out: Tmax): 3 h
AUC(0-t) (oral, 4 Cogni.Q vegicaps, subject S17 (147 lb), read-out: AUC0-48h): 593 nmol·h/L
Cmax (oral, 4 Cogni.Q vegicaps, subject S17 (147 lb), read-out: Cmax): 104 nM
half-life (oral, 4 Cogni.Q vegicaps, subject S17 (147 lb), read-out: Terminal t1/2, h (converted)): 24.2 h
Tmax (oral, 4 Cogni.Q vegicaps, subject S17 (147 lb), read-out: Tmax): 2 h
half-life (oral, 4 Cogni.Q vegicaps, subject S18 (180 lb), outlier, excluded from means, read-out: Terminal t1/2, h (converted)): 55.7 h
AUC(0-t) (oral, 4 Cogni.Q vegicaps, subject S18 (180 lb), read-out: AUC0-48h): 48.1 nmol·h/L
Cmax (oral, 4 Cogni.Q vegicaps, subject S18 (180 lb), read-out: Cmax): 3 nM
Tmax (oral, 4 Cogni.Q vegicaps, subject S18 (180 lb), read-out: Tmax): 4 h
AUC(0-t) (oral, 4 Cogni.Q vegicaps, subject S19 (130 lb), read-out: AUC0-48h): 87.7 nmol·h/L
Cmax (oral, 4 Cogni.Q vegicaps, subject S19 (130 lb), read-out: Cmax): 6.9 nM
half-life (oral, 4 Cogni.Q vegicaps, subject S19 (130 lb), read-out: Terminal t1/2, h (converted)): 16 h
Tmax (oral, 4 Cogni.Q vegicaps, subject S19 (130 lb), read-out: Tmax): 4 h
half-life (oral, subject S16 (175 lb), outlier, excluded from means, read-out: Terminal t1/2, h (converted)): 190 h
AUC(0-t) (oral, subject S16 (175 lb), read-out: AUC0-48h): 68.4 nmol·h/L
Cmax (oral, subject S16 (175 lb), read-out: Cmax): 4.3 nM
AUC(0-t) (oral, subject S20 (200 lb), read-out: AUC0-48h): 170 nmol·h/L
Cmax (oral, subject S20 (200 lb), read-out: Cmax): 17.2 nM
half-life (oral, subject S20 (200 lb), read-out: Terminal t1/2, h (converted)): 18.8 h
Tmax (oral, subject S20 (200 lb), read-out: Tmax): 2 h
conversion of D/DA to DOH (humans, from plasma AUC0–48h values): > 98%
AUC(0-t) (male, oral, 4 Cogni.Q vegicaps, Men n=10 (S1 Table), read-out: AUC0-48h, Mean): 327 nmol·h/L
Cmax (male, oral, 4 Cogni.Q vegicaps, Men n=10 (S1 Table), read-out: Cmax, nM, Mean): 52.2 nM
Tmax (male, oral, 4 Cogni.Q vegicaps, Men n=10 (S1 Table), read-out: Tmax, h, Mean): 2.1 h
half-life (male, oral, Men, outliers excluded (S1 Table), read-out: Terminal t1/2, h, Mean (converted)): 14.9 h
AUC(0-t) (male, po, Men N = 10, single oral dose Cogni.Q, read-out: AUC0–48h, h.nmol/L Mean (SD)): 327 nmol·h/L
Cmax (male, po, Men N = 10, single oral dose Cogni.Q, read-out: Cmax, nmol/L, Mean (SD)): 52.2 nM
Tmax (male, po, Men N = 10, single oral dose Cogni.Q, read-out: Tmax, h, Mean (SD)): 2.1 h
half-life (male, po, Men, outlier subjects excluded, single oral dose Cogni.Q, read-out: T1/2, h, terminal Mean (SD) (converted)): 14.9 h
difference in C max among subjects in the same gender (same gender): more than 20 fold
Structure (SMILES): C/C=C(/C)C(=O)O[C@H]1Cc2cc3ccc(=O)oc3cc2OC1(C)C [DA, decursinol angelate]
